Tests used:
[1] = target: Adenosylhomocysteinase (Oryctolagus cuniculus); experiment: Inhibition of S-adenosyl-homocysteine (AdoHcy)hydrolase from rabbit erythrocytes
[2] = target: Adenosylhomocysteinase (Oryctolagus cuniculus); experiment: as above; remark: listed apart in the source

Compound | IC50 [1] | IC50 [2]
Nc1ncnc2c1ncn2C1C(O)C(O)C(CO)C1O (configuration not stated) | 28 µM | 
Nc1ncnc2c1ncn2[C@@H](C=O)O[C@@H](C=O)CO [Adenosine dialdehyde] |  | 0.04 µM
